Earlier results, collected in patent publication US10773080B2, “External trigeminal nerve stimulation for the acute non-invasive treatment of migraine attacks” (Cefaly Technology Sprl, priority 2017, dated 2020).

Columns and labels:
migraine [1] = details: literature data; for Pain freedom at 2 h: percentage of patients
migraine [2] = details: in vivo

## CN1CCC(C(=O)c2cccc(NC(=O)c3c(F)cc(F)cc3F)n2)CC1 [[B], Lasmiditan]
Migraine [1]; irrespective of MBS
  Nausea freedom at 2 h: ~26%
  Phonophobia freedom at 2 h: ~30%
  Photophobia freedom at 2 h: ~38%
  Vomiting freedom at 2 h: ~5%
Migraine [1]
  At least one treatment-emergent adverse effect: 84%
  Pain relief at 2 h: 65%
  Use of rescue medication between 2 h and 24 h: 42%
  Pain freedom at 2 h: 28%

## C[C@@H]1[C@H](c2ccccc2)C[C@H](NC(=O)c2cnc3c(c2)C[C@@]2(C3)C(=O)Nc3ncccc32)C(=O)N1CC(F)(F)F [[F], Ubrogepant]
Migraine [1]; irrespective of MBS
  Nausea freedom at 2 h: 70.6%
  Phonophobia freedom at 2 h: 60.8%
  Photophobia freedom at 2 h: 54.9%
Migraine [1]
  At least one treatment-emergent adverse effect: 29.4%
  Pain relief at 2 h: 58.8%
  Sustained pain freedom at 24 h: 21.6%
  Pain freedom at 2 h: 25.5%

## O=C(O)Cc1ccccc1Nc1c(Cl)cccc1Cl [diclofenac]
Migraine [2]
  Mean pain score reductions at two hours: 50.5%
  Reduction in mean pain VAS scores at one hour: 26.8%

## CNS(=O)(=O)Cc1ccc2[nH]cc(CCN(C)C)c2c1 [sumatriptan]
Migraine [2]
  Mean pain score reductions at two hours: 40.0%
  Reduction in mean pain VAS scores at one hour: 17.1%
